Data as given in patent US10238670B2, “9-aminomethyl minocycline compounds and methods of use thereof in urinary tract infection (UTI) treatment” (Paratek Pharmaceuticals, Inc., priority 2016, dated 2019).
Values after ≈ are worked out from the molar mass of the structure shown.

What was measured:
Assay in all cases: In vitro MIC, 2010 surveillance isolates
E. coli ESBL− = format: cell-based, Escherichia coli
E. coli ESBL+ = format: cell-based, Escherichia coli
K. pneumoniae ESBL− = format: cell-based, Klebsiella pneumoniae
K. pneumoniae ESBL+ = format: cell-based, Klebsiella pneumoniae
K. oxytoca = format: cell-based
E. cloacae CeftazS = format: cell-based
E. cloacae CeftazR = format: cell-based
A. baumanii = format: cell-based
Acinetobacter spp = format: cell-based; conditions: for range of MICs (N <10, shown instead of MIC90): N=9
MSSA = format: cell-based
MRSA = format: cell-based
MS CoNS = format: cell-based, Coagulase-Negative Staphylococcus; conditions: for % R (resistance): Eucast breakpoints
MR CoNS = format: cell-based, Coagulase-Negative Staphylococcus; conditions: for % R (resistance): Eucast breakpoints
E. faecalis VS = format: cell-based
E. faecalis VNS = format: cell-based
E. faecium VS = format: cell-based
E. faecium VNS = format: cell-based

With `CN(C)c1cc(NC(=O)CNC(C)(C)C)c(O)c2c1C[C@H]1C[C@H]3[C@H](N(C)C)C(O)=C(C(N)=O)C(=O)[C@@]3(O)C(O)=C1C2=O` [Tigecycline] the “% R (resistance)” value (E. coli ESBL−; Asia/Pac, Eucast breakpoints) was 0%, the MIC90 (E. coli ESBL−; Asia/Pac, N=282) was 0.25 µg/mL (≈ 0.427 µM) and the “% R (resistance)” value (E. coli ESBL−; Europe, Eucast breakpoints) was 0%. The MIC90 (E. coli ESBL−; Europe, N=1533) was 0.25 µg/mL (≈ 0.427 µM), the “% R (resistance)” value (E. coli ESBL−; L. Amer, CLSI breakpoints) was 0% and the MIC90 (E. coli ESBL−; L. Amer, N=389) was 0.25 µg/mL (≈ 0.427 µM). The “% R (resistance)” value (E. coli ESBL−; N America, CLSI breakpoints) was 0%, the MIC90 (E. coli ESBL−; N America, N=1172) was 0.25 µg/mL (≈ 0.427 µM) and the “% R (resistance)” value (E. coli ESBL+; Asia/Pac, Eucast breakpoints) was 0%. For the same compound, the MIC90 (E. coli ESBL+; Asia/Pac, N=219) was 0.25 µg/mL (≈ 0.427 µM), the “% R (resistance)” value (E. coli ESBL+; Europe, Eucast breakpoints) was 0% and the MIC90 (E. coli ESBL+; Europe, N=274) was 0.5 µg/mL (≈ 0.854 µM). The “% R (resistance)” value (E. coli ESBL+; L. Amer, CLSI breakpoints) was 0%, the MIC90 (E. coli ESBL+; L. Amer, N=168) was 0.25 µg/mL (≈ 0.427 µM) and the “% R (resistance)” value (E. coli ESBL+; N America, CLSI breakpoints) was 0%. For the same compound, the MIC90 (E. coli ESBL+; N America, N=134) was 0.25 µg/mL (≈ 0.427 µM), the “% R (resistance)” value (K. pneumoniae ESBL−; Asia/Pac, Eucast breakpoints) was 1.1% and the MIC90 (K. pneumoniae ESBL−; Asia/Pac, N=189) was 0.5 µg/mL (≈ 0.854 µM). For the same compound, the “% R (resistance)” value (K. pneumoniae ESBL−; Europe, Eucast breakpoints) was 0.3%, the MIC90 (K. pneumoniae ESBL−; Europe, N=361) was 0.5 µg/mL (≈ 0.854 µM) and the “% R (resistance)” value (K. pneumoniae ESBL−; L. Amer, CLSI breakpoints) was 0%. The MIC90 (K. pneumoniae ESBL−; L. Amer, N=160) was 0.5 µg/mL (≈ 0.854 µM), the “% R (resistance)” value (K. pneumoniae ESBL−; N America, CLSI breakpoints) was 0% and the MIC90 (K. pneumoniae ESBL−; N America, N=671) was 0.5 µg/mL (≈ 0.854 µM). For the same compound, the “% R (resistance)” value (K. pneumoniae ESBL+; Asia/Pac, Eucast breakpoints) was 3.2%, the MIC90 (K. pneumoniae ESBL+; Asia/Pac, N=124) was 1 µg/mL (≈ 1.71 µM) and the “% R (resistance)” value (K. pneumoniae ESBL+; Europe, Eucast breakpoints) was 0.7%. The MIC90 (K. pneumoniae ESBL+; Europe, N=151) was 1 µg/mL (≈ 1.71 µM), the “% R (resistance)” value (K. pneumoniae ESBL+; L. Amer, CLSI breakpoints) was 0% and the MIC90 (K. pneumoniae ESBL+; L. Amer, N=209) was 2 µg/mL (≈ 3.41 µM). The “% R (resistance)” value (K. pneumoniae ESBL+; N America, CLSI breakpoints) was 0%, the MIC90 (K. pneumoniae ESBL+; N America, N=108) was 2 µg/mL (≈ 3.41 µM) and the “% R (resistance)” value (K. oxytoca; Asia/Pac, Eucast breakpoints) was 5.9%. For the same compound, the MIC90 (K. oxytoca; Asia/Pac, N=17) was 0.5 µg/mL (≈ 0.854 µM), the “% R (resistance)” value (K. oxytoca; Europe, Eucast breakpoints) was 0% and the MIC90 (K. oxytoca; Europe, N=158) was 0.5 µg/mL (≈ 0.854 µM). For the same compound, the “% R (resistance)” value (K. oxytoca; L. Amer, CLSI breakpoints) was 0%, the MIC90 (K. oxytoca; L. Amer, N=25) was 1 µg/mL (≈ 1.71 µM) and the “% R (resistance)” value (K. oxytoca; N America, CLSI breakpoints) was 0%. For the same compound, the MIC90 (K. oxytoca; N America, N=177) was 0.5 µg/mL (≈ 0.854 µM), the “% R (resistance)” value (E. cloacae CeftazS; Asia/Pac, Eucast breakpoints) was 2% and the MIC90 (E. cloacae CeftazS; Asia/Pac, N=100) was 0.5 µg/mL (≈ 0.854 µM). For the same compound, the “% R (resistance)” value (E. cloacae CeftazS; Europe, Eucast breakpoints) was 0%, the MIC90 (E. cloacae CeftazS; Europe, N=183) was 0.5 µg/mL (≈ 0.854 µM) and the “% R (resistance)” value (E. cloacae CeftazS; L. Amer, CLSI breakpoints) was 0%. The MIC90 (E. cloacae CeftazS; L. Amer, N=57) was 1 µg/mL (≈ 1.71 µM), the “% R (resistance)” value (E. cloacae CeftazS; N America, CLSI breakpoints) was 0% and the MIC90 (E. cloacae CeftazS; N America, N=210) was 0.5 µg/mL (≈ 0.854 µM). For the same compound, the “% R (resistance)” value (E. cloacae CeftazR; Asia/Pac, Eucast breakpoints) was 1.6%, the MIC90 (E. cloacae CeftazR; Asia/Pac, N=63) was 0.5 µg/mL (≈ 0.854 µM) and the “% R (resistance)” value (E. cloacae CeftazR; Europe, Eucast breakpoints) was 0%. For the same compound, the MIC90 (E. cloacae CeftazR; Europe, N=72) was 0.5 µg/mL (≈ 0.854 µM), the “% R (resistance)” value (E. cloacae CeftazR; L. Amer, CLSI breakpoints) was 0% and the MIC90 (E. cloacae CeftazR; L. Amer, N=42) was 1 µg/mL (≈ 1.71 µM). The “% R (resistance)” value (E. cloacae CeftazR; N America, CLSI breakpoints) was 0%, the MIC90 (E. cloacae CeftazR; N America, N=77) was 2 µg/mL (≈ 3.41 µM) and the MIC90 (A. baumanii; Asia/Pac, N=275) was 1 µg/mL (≈ 1.71 µM). For the same compound, the MIC90 (A. baumanii; Europe, N=145) was 2 µg/mL (≈ 3.41 µM), the MIC90 (A. baumanii; L. Amer, N=275) was 2 µg/mL (≈ 3.41 µM) and the MIC90 (A. baumanii; N America, N=154) was 2 µg/mL (≈ 3.41 µM). For the same compound, the “range of MICs (N <10, shown instead of MIC90)” value (“range of MICs” for short) (Acinetobacter spp; Asia/Pac) was ≤0.03-1, the MIC90 (Acinetobacter spp; Europe, N=43) was 2 µg/mL (≈ 3.41 µM) and the “range of MICs” value (Acinetobacter spp; L. Amer) was ≤0.03-2. The MIC90 (Acinetobacter spp; N America, N=42) was 0.5 µg/mL (≈ 0.854 µM), the “% R (resistance)” value (MSSA; Asia/Pac, Eucast breakpoints) was 0% and the MIC90 (MSSA; Asia/Pac, N=641) was 0.25 µg/mL (≈ 0.427 µM). For the same compound, the “% R (resistance)” value (MSSA; Europe, Eucast breakpoints) was 0%, the MIC90 (MSSA; Europe, N=2109) was 0.25 µg/mL (≈ 0.427 µM) and the “% R (resistance)” value (MSSA; L. Amer, CLSI breakpoints) was 0%. The MIC90 (MSSA; L. Amer, N=590) was 0.25 µg/mL (≈ 0.427 µM), the “% R (resistance)” value (MSSA; N America, CLSI breakpoints) was 0% and the MIC90 (MSSA; N America, N=2373) was 0.25 µg/mL (≈ 0.427 µM). For the same compound, the “% R (resistance)” value (MRSA; Asia/Pac, Eucast breakpoints) was 0%, the MIC90 (MRSA; Asia/Pac, N=428) was 0.25 µg/mL (≈ 0.427 µM) and the “% R (resistance)” value (MRSA; Europe, Eucast breakpoints) was 0%. For the same compound, the MIC90 (MRSA; Europe, N=750) was 0.25 µg/mL (≈ 0.427 µM), the “% R (resistance)” value (MRSA; L. Amer, CLSI breakpoints) was 0% and the MIC90 (MRSA; L. Amer, N=506) was 0.25 µg/mL (≈ 0.427 µM). The “% R (resistance)” value (MRSA; N America, CLSI breakpoints) was 0%, the MIC90 (MRSA; N America, N=2508) was 0.25 µg/mL (≈ 0.427 µM) and the “% R (resistance)” value (MS CoNS; Asia/Pac) was 0%. The MIC90 (MS CoNS; Asia/Pac, N=18) was 0.25 µg/mL (≈ 0.427 µM), the “% R (resistance)” value (MS CoNS; Europe) was 0% and the MIC90 (MS CoNS; Europe, N=185) was 0.25 µg/mL (≈ 0.427 µM). The MIC90 (MS CoNS; L. Amer, N=67) was 0.25 µg/mL (≈ 0.427 µM), the MIC90 (MS CoNS; N America, N=191) was 0.25 µg/mL (≈ 0.427 µM) and the “% R (resistance)” value (MR CoNS; Asia/Pac) was 0%. For the same compound, the MIC90 (MR CoNS; Asia/Pac, N=77) was 0.25 µg/mL (≈ 0.427 µM), the “% R (resistance)” value (MR CoNS; Europe) was 0% and the MIC90 (MR CoNS; Europe, N=510) was 0.25 µg/mL (≈ 0.427 µM). For the same compound, the MIC90 (MR CoNS; L. Amer, N=301) was 0.25 µg/mL (≈ 0.427 µM), the MIC90 (MR CoNS; N America, N=461) was 0.25 µg/mL (≈ 0.427 µM) and the “% R (resistance)” value (E. faecalis VS; Asia/Pac, Eucast breakpoints) was 0%. The MIC90 (E. faecalis VS; Asia/Pac, N=214) was 0.25 µg/mL (≈ 0.427 µM), the “% R (resistance)” value (E. faecalis VS; Europe, Eucast breakpoints) was 0% and the MIC90 (E. faecalis VS; Europe, N=669) was 0.25 µg/mL (≈ 0.427 µM). The “% R (resistance)” value (E. faecalis VS; L. Amer, CLSI breakpoints) was 0%, the MIC90 (E. faecalis VS; L. Amer, N=290) was 0.25 µg/mL (≈ 0.427 µM) and the “% R (resistance)” value (E. faecalis VS; N America, CLSI breakpoints) was 0%. For the same compound, the MIC90 (E. faecalis VS; N America, N=863) was 0.25 µg/mL (≈ 0.427 µM), the “range of MICs” value (E. faecalis VNS; Asia/Pac, N=1) was 0.25 and the “% R (resistance)” value (E. faecalis VNS; Europe, Eucast breakpoints) was 0%. The “range of MICs” value (E. faecalis VNS; Europe, N=8) was ≤0.03-0.25, the “% R (resistance)” value (E. faecalis VNS; L. Amer, CLSI breakpoints) was 0% and the “range of MICs” value (E. faecalis VNS; L. Amer, N=7) was ≤0.03-0.06. For the same compound, the “% R (resistance)” value (E. faecalis VNS; N America, CLSI breakpoints) was 0%, the MIC90 (E. faecalis VNS; N America, N=38) was 0.25 µg/mL (≈ 0.427 µM) and the “% R (resistance)” value (E. faecium VS; Asia/Pac, Eucast breakpoints) was 0%. For the same compound, the MIC90 (E. faecium VS; Asia/Pac, N=106) was 0.12 µg/mL (≈ 0.205 µM), the “% R (resistance)” value (E. faecium VS; Europe, Eucast breakpoints) was 0% and the MIC90 (E. faecium VS; Europe, N=303) was 0.12 µg/mL (≈ 0.205 µM). For the same compound, the “% R (resistance)” value (E. faecium VS; L. Amer, CLSI breakpoints) was 0%, the MIC90 (E. faecium VS; L. Amer, N=51) was 0.12 µg/mL (≈ 0.205 µM) and the “% R (resistance)” value (E. faecium VS; N America, CLSI breakpoints) was 0%. The MIC90 (E. faecium VS; N America, N=115) was 0.25 µg/mL (≈ 0.427 µM), the “% R (resistance)” value (E. faecium VNS; Asia/Pac, Eucast breakpoints) was 0% and the MIC90 (E. faecium VNS; Asia/Pac, N=24) was 0.25 µg/mL (≈ 0.427 µM). For the same compound, the “% R (resistance)” value (E. faecium VNS; Europe, Eucast breakpoints) was 0%, the MIC90 (E. faecium VNS; Europe, N=71) was 0.25 µg/mL (≈ 0.427 µM) and the “% R (resistance)” value (E. faecium VNS; L. Amer, CLSI breakpoints) was 0%. For the same compound, the MIC90 (E. faecium VNS; L. Amer, N=41) was 0.12 µg/mL (≈ 0.205 µM), the “% R (resistance)” value (E. faecium VNS; N America, CLSI breakpoints) was 0% and the MIC90 (E. faecium VNS; N America, N=478) was 0.25 µg/mL (≈ 0.427 µM).
